Reference: patent publication US9572911B2, “Method for decellularization of tissue grafts” (University of Florida Research Foundation, Inc., priority 2013, dated 2017)

Biological target: purified laminin-1 (Homo sapiens, UniProt P07942+P11047+P25391)
Test: Effects of individual detergents on the neurite-promoting activity of purified laminin
Format: cell-based
Conditions: dialyzed, neurons 24 hours, FIG. 14
Procedure: FIG. 14. Effects of individual detergents on the neurite-promoting activity of purified laminin. Purified laminin-1 was mixed with individual detergents as follows: Control (buffer alone), sulfobetaine-10 (125 mM), sulfobetaine-16 (0.6 mM) and […] (0.14%). The mixtures were extensively dialyzed and then were added to tissue culture wells to form a substratum onto which dissociated neurons were seeded. After 24 hours in culture the length of neurites were measured. Data represent the specific activities (ED50) calculated from mean scores from dilution series performed in duplicates in 4 separate experiments
The extracellular matrix of nerve is known to promote the growth of axons. In particular, the basal lamina tubes encasing axons provides a potent stimulus for axonal growth in nerve regeneration. The cryoculture assay used in the experiments described above relies on the structure and growth-promoting activity of the basal lamina. It is well documented that laminin is the major neurite-promoting component of the nerve basal lamina. […] Therefore, tests were performed to examine the effects of individual detergents on purified laminin. Laminin activity was unchanged by SB-10. Exposure to SB-16 reduced laminin activity approximately 50%.

reduction of laminin activity (sulfobetaine-16 0.6 mM)	laminin neurite-promoting activity after exposure to detergent (SB-10 125 mM, SB-16 0.6 mM, Triton X-200 0.14%)	Compound
approximately 50%	–	CCCCCCCCCCCCCCCC[N+](C)(C)CCCS(=O)(=O)[O-] [SB-16, sulfobetaine-16]
–	unchanged	CCCCCCCCCC[N+](C)(C)CCCS(=O)(=O)[O-] [SB-10, sulfobetaine-10]
